From patent US11833137B2, “Substituted chromenones, IRE1 inhibitors, and methods of using same” (The Wistar Institute, priority 2018, dated 2023) come the findings set out here.

“Also recorded” adds a separate entry of the source.

Data set [1] can be described thus: Fluorescence stability (decomposition) in aqueous solution. Type of data set: physicochemical. Particulars: 37° C. How it is done: (FIG. 2B) 5TGM1 cells were treated with DMSO or with 20 μM 2, 4, 3, or 7 dissolved in DMSO for 3 days and subjected to XTT assays. Percentages of growth were determined by comparing treated groups with control groups (DMSO). Each data point derived from four independent groups receiving exactly the same treatment was plotted as mean±SD. Results are representative of three independent experiments. […] The values of I/I0 were plotted as a function of time and shown in the inset. I0 was the initial fluorescence intensity of 4 at 0 h. […] The values of I/I0 were plotted as a function of time and shown in the inset. I0 was the initial fluorescence intensity of 5 at 0 h. […] (FIG. 2G) The decomposition rates of 7 and 8 were plotted as a function of time in RPMI media incubated at 37° C. Aliquots were analyzed by HPLC and the peaks integrated.
FIGS. 5A-5J illustrate the finding that installation of a boronate cage cleavable by H2O2 stabilizes the 1,3-dioxane acetal protective group of D-F07 to allow for temporal inhibition of XBP-1s upon contact with H2O2. (FIG. 5A) A scheme showing that installation of a boronate-caged group stabilizes the 1,3-dioxane acetal protective group to allow for H2O2-mediated release of intact D-F07. (FIG. 5B) The fluorescence of BC-D-F07a (2.5 μM in the DMSO/PBS solution (v/v=1:99), Ex=360 nm) increases upon incubation with 0 to 200 μM hydrogen peroxide at room temperature for 1 h. (FIG. 5C) The fluorescence of BC-D-F07b (2.5 μM in the DMSO/PBS solution (v/v=1:99), Ex=360 nm) increases upon incubation with 0 to 2 mM hydrogen peroxide at 37° C. for 1 h. […] I0 was the initial fluorescence intensity of D-F07, BC-D-F07a or BC-D-F07b at 0 h. (FIG. 5E) The levels of hydrogen peroxide produced by 5TGM1, 72-h LPS-stimulated primary CLL, MEC2, and WaC3 cells were measured by Amplex Red with or without the addition of extracellular catalase (500 U/mL). (FIG. 5F) 5TGM1 cells were treated with BC-D-F07a at increasing concentrations for 24 h, lysed, and analyzed for the expression of indicated proteins by immunoblots. (FIG. 5G) CD5+ CLL cells purified from spleens of Eμ-TCL1 mice were stimulated with […], subsequently treated with BC-D-F07a at 20 μM for 16 h, and then incubated with hydrogen peroxide at indicated concentrations for another 4 h. Cells were lysed and analyzed for the expression of indicated proteins by immunoblots. […] Cells were lysed and analyzed for the expression of indicated proteins by immunoblots. […] Percentages of growth were determined by comparing treated groups with control groups (DMSO). […]
UV-vis and fluorescence spectra were carried out on a BioTek SYNERGY™ NEO2 instrument (96 well plate).

For data set [2], the system named is XBP-1s expression, 5TGM1 cells. Description: XBP-1s immunoblot in 5TGM1 multiple myeloma cells. Type of data set: cell-based, mouse. To be noted: for inhibition of XBP-1s expression, short term: 2.5 μM for 1, 2 or 4 h; for suppression of XBP-1s expression, long term: 10 μM for a course of 3 days. On the procedure: 5TGM1 mouse multiple myeloma cells, primary mouse B cells, primary mouse Eμ-TCL1 CLL cells, and human CLL cell lines (MEC2 and WaC3) were cultured at 37° C. in a 5% CO2 incubator using RPMI 1640 media (Gibco) supplemented with 10% heat-inactivated FBS, 2 mM L-glutamine, 100 U/mL penicillin G sodium, 1 mM sodium pyruvate, 0.1 mM non-essential amino acids, 100 μg/mL streptomycin sulfate and 0.1 mM β-mercaptoethanol (β-ME).
Cells were lysed using RIPA buffer (10 mM Tris-HCl, pH 7.4, 150 mM NaCl, 1% NP-40, 0.5% sodium deoxycholate, 0.1% SDS, and 1 mM EDTA) supplemented with protease inhibitors (Roche). Protein concentrations were determined by BCA assays (Pierce).
Samples were boiled in SDS-PAGE sample buffer (62.5 mM Tris-HCl, pH 6.8, 2% SDS, 10% glycerol, 0.1% bromophenol blue) with β-ME and analyzed by SDS-PAGE. Proteins were transferred to nitrocellulose membranes, blocked in 5% nonfat milk (wt/vol in PBS), and immunoblotted with indicated primary antibodies and appropriate horseradish peroxidase-conjugated secondary antibodies. Immunoblots were developed using Western Lighting Chemiluminescence Reagent (PerkinElmer).
To develop inhibitors with improved potency to target the IRE1/XBP-1 pathway, tricyclic chromenone-based IRE1 RNase inhibitors with different amine group (R^1) were synthesized and compared: allyloxycarbonyl (alloc) in B-H09 (1), —H in C-B06 (2), and —CH3 in C-D06 (3) (FIG. 1A). 5TGM1 multiple myeloma cells were chosen to evaluate inhibitory effects of these inhibitors because they have constitutively activated IRE1/XBP-1 pathways.
(In general: Immunoblotting shows a protein as a band on a membrane.)

The next data set relates to 5TGM1 cells. Description: Cell proliferation XTT assay, 5TGM1. Format: cell-based, mouse. How it is done:
5TGM1 cells were suspended in phenol red-free RPMI media, seeded in 96-well cell culture plates, and treated with indicated IRE1 inhibitors (20 μM, unless indicated otherwise). At indicated time points, cells were spun down and cell proliferation was assessed by XTT assays (Roche) according to the manufacturer's instructions. Briefly, 50 μl XTT labeling reagent, 1 μl electron-coupling reagent, and 100 μl phenol red-free RPMI media were combined and applied to each well of the 96-well plates. Cells were incubated for 4 h in a CO2 incubator to allow for the yellow tetrazolium salt XTT to be cleaved by mitochondrial dehydrogenases of metabolically active cells to form the orange formazan dye, which can be quantified at 492 nm using a BioTek SYNERGY™ NEO2 Multimode Reader.

The subject of another data set is WaC3 cells. Kind of data set: Cell proliferation XTT assay, WaC3. Format: cell-based, human. To be noted: 20 μM for a course of 3 days.
Another data set deals with MEC2 cells. Kind of data set: Cell proliferation XTT assay, MEC2. Particulars: indicated concentrations, 24 h. Type of data set: cell-based, human.
Data set [3] can be described thus: Compound degradation HPLC assay. Format: physicochemical. Particulars: 37° C. On the procedure:
A 20 mM DMSO stock solution of analyte compounds (7, 8, D-F07, PC-D-F07 and TC-D-F07) were diluted to 400 μM with PBS, pH 7.4, or to 800 μM with RMPI plus 10% FBS culture media (experiments with TC-D-F07 were performed using RPMI without FBS). After incubation at 37° C., aliquots at various time points were injected onto an analytical HPLC instrument and the peaks integrated (UV monitored at 220 nm). Intact compound relative to t=0 was plotted as a function of time.

With `COc1cc2c3c(c(=O)oc2c(C2OCCCO2)c1B1OC(C)(C)C(C)(C)O1)CN(C)CC3` [BC-D-F07b, 7-(1,3-dioxan-2-yl)-9-methoxy-3-methyl-8-(4,4,5,5-tetramethyl-1,3,2-dioxaborolan-2-yl)-3,4-dihydro-1H-chromeno[3,4-c]pyridin-5(2H)-one], the “hydrolysis of 1,3-dioxane acetal by fluorescence decay” value in data set [1] (aqueous solution, 0 to 48 h, versus D-F07) is listed as “stabilized the 1,3-dioxane acetal protecting group”.

As for `CN1CCc2c(c(=O)oc3c(C=O)c(O)ccc23)C1` [Compound 3], in data set [2], the “inhibition of XBP-1s expression, short term” value is listed as “began to lose its inhibitory effect within 4 h” and the “suppression of XBP-1s expression, long term” value (“suppression … long term” for short) was “recovered significantly in cells treated for 2 days”. For the same molecule, the “inhibition of XBP-1s expression” value in data set [2] (10 μM for 0, 3, 6, 12 or 24 h) is on record as “rapidly inhibited the expression of XBP-1s; also recorded: much better long-term inhibitory activities than 1”. In addition, the “overall comparison of inhibition of IRE-1 / XBP-1s expression in whole cells” value in data set [2] (summary statement) is reported as “most efficient aldehyde compounds in inhibiting IRE-1 in intact cells”.

Turning to `CC1(C)COC(c2c(O)ccc3c4c(c(=O)oc23)CNCC4)OC1` [Compound 5, 7-(5,5-dimethyl-1,3-dioxan-2-yl)-8-hydroxy-3,4-dihydro-1H-chromeno[3,4-c]pyridin-5(2H)-one], in data set [1] (PBS with 1% DMSO, 48 h, from 100%), the “fluorescence intensity remaining (decomposition)” value is on record as “approximately 60%”.

Consider `CN1CCc2c(c(=O)oc3c(C4OCCCO4)c(O)ccc23)C1` [Compound 7, 7-(1,3-dioxan-2-yl)-8-hydroxy-3-methyl-1,2,3,4-tetrahydro-5H-chromeno[3,4-c]pyridin-5-one], for which the “suppression … long term” value in data set [2] is “continuously suppressed even after 3-day treatment; also recorded: more effective than 8 in suppressing the expression of XBP-1s for a longer term”. Further, the “concentration that effectively blocks XBP-1s expression” value in data set [2] (24 h) is 10 µM. For the same molecule, the “growth inhibition / cytotoxicity (XTT)” value with 5TGM1 cells (20 μM for a course of 3 days) was “more potent than their respective aldehyde counterparts”.

`COc1cc2c3c(c(=O)oc2c(/C=N/NC(C)=O)c1O)CN(C)CC3` [Compound 10, (E)-N′-((8-hydroxy-9-methoxy-3-methyl-5-oxo-1,3,4,5-tetrahydro-2H-chromeno[3,4-c]pyridin-7-yl)methylene)acetohydrazide]: the “growth suppression (XTT)” value in the data set on WaC3 cells is “initially more potent than 7 and 8 in suppressing WaC3 cell growth; also recorded: incapable of continuously inhibiting the growth of WaC3 cells”. Moreover, in data set [2], the “inhibition of XBP-1s expression, short term” value is listed as “suppressed the expression of XBP-1s more rapidly than 8” and the “suppression … long term” value is listed as “exhibited a long-term inhibitory effect; also recorded: slightly recovered in cells treated with 10 for 3 days”.

With `N[C@@H](CSc1ccc([N+](=O)[O-])cc1[N+](=O)[O-])C(=O)O` [Compound 12, (S-2,4-Dinitrophenyl)cysteine], the “cytotoxicity / growth inhibition (XTT)” value with MEC2 cells is reported as “not cytotoxic to MEC2 cells”. Moreover, the “expression of XBP-1s (ER stress induction)” value in data set [2] (10 μM, 0 to 24 h) is reported as “time-dependent increased expression of XBP-1s”.

Turning to `COc1cc2c3c(c(=O)oc2c(C2OCCCO2)c1OC(C)c1ccc(C(=O)OCC[Si](C)(C)C)cc1[N+](=O)[O-])CN(C)CC3` [PC-D-F07, 2-(trimethylsilyl)ethyl 4-(1-((7-(1,3-dioxan-2-yl)-9-methoxy-3-methyl-5-oxo-1,3,4,5-tetrahydro-2H-chromeno[3,4-c]pyridin-8-yl)oxy)ethyl)-3-nitrobenzoate], the “stability (HPLC)” value in data set [3] (PBS, 48 h) is “completely stable”; in data set [3] (RPMI media, 96 h), “completely stable”. Also, in data set [2] (10 μM 4 h, washed, UV 10 min, 8 h culture), the “suppression of XBP-1s after removal of compound from media” value is “suppression of XBP-1s expression”.

Regarding `COc1cc2c3c(c(=O)oc2c(C2OCCCO2)c1OS(=O)(=O)c1ccc([N+](=O)[O-])cc1[N+](=O)[O-])CN(C)CC3` [TC-D-F07, 7-(1,3-dioxan-2-yl)-9-methoxy-3-methyl-5-oxo-1,3,4,5-tetrahydro-2H-chromeno[3,4-c]pyridin-8-yl 2,4-dinitrobenzenesulfonate], the “cytotoxicity / growth inhibition (XTT)” value in the data set with MEC2 cells is given as “potently inhibited the growth of these cells”. In data set [3] (4-h incubation in both PBS and RPMI media), this molecule showed an intact compound of 90%. For the same molecule, the “decomposition rate (HPLC) versus D-F07” value in data set [3] (PBS) was “slower decomposition rate”. In addition, the “suppression of XBP-1s expression” value in data set [2] (2.5 μM, 3 h) is reported as “significantly suppress the expression of XBP-1s”. In addition, the “levels of XBP-1s, time course” value is “the levels of XBP-1s began to recover” in data set [2] (2.5 μM, 12 h); “initially increased after 3-h treatment and subsequently decreased in response to continuous 12-h treatment” in data set [2] (10 μM, 0 to 12 h). In addition, the “levels of XBP-1s” value in data set [2] (10 and 20 μM, 3 h) is recorded as “levels of XBP-1s increased”. Besides, the “cytotoxicity (XTT)” value in the data set with 5TGM1 cells (0, 2.5, 5, 10 or 20 μM, 24 h) is reported as “more cytotoxic than D-F07”.
